In PMC8080589, “Modulation of αVβ6 integrin in osteoarthritis-related synovitis and the interaction with VTN(381–397 a.a.) competing for TGF-β1 activation” (Experimental & Molecular Medicine, 2021):
Ends that are not written are not given here.

B1: HMGB1: danger-associated molecular pattern (protein, UniProt P09429 1-215, looked up)
High mobility group protein B1: MGKGDPKKPRGKMSSYAFFVQTCREEHKKKHPDASVNFSEFSKKCSERWKTMSAKEKGKFEDMAKADKARYEREMKTYIPPKGETKKKFKDPNAPKRPPSAFFLFCSEYRPKIKGEHPGLSIGDVAKKLGEMWNNTAADDKQPYEKKAAKLKEKYEKDIAAYRAKGKPDAAKKGVVKAEKSKKKKEEEEDEEDEEDEEEEEDEEDEDEEEDDDDE
B2: S100A9: danger-associated molecular pattern (protein, UniProt P06702 1-114, looked up)
Protein S100-A9: MTCKMSQLERNIETIINTFHQYSVKLGHPDTLNQGEFKELVRKDLQNFLKKENKNEKVIEHIMEDLDTNADKQLSFEEFIMLMARLTWASHEKMHEGDEGPGHHHKPGLGEGTP

What was measured:
[1] = system: αV integrin subunit expression, human fibroblast-like synoviocytes (FLSs); assay: αV subunit expression in FLSs by western blot after stimulation; assay type: cell-based; settings: OA FLSs, western blot normalized to GAPDH; IL-1β, IL-6, TNF-α 10 ng/mL 3 or 7 days; prednisolone, dexamethasone 1 μM 3 or 7 days; HMGB1 10, 50, 100 ng/mL 3 days; S100A9, S100A12 100, 200 ng/mL 3 days or 24 h; AGE-BSA 50, 100, 200 μg/mL 3 days or 24 h; menadione 25–50–100 μM 3 h; H2O2 100–200–400 μM 2 h
Method: (§1) Synovial membranes were obtained from 22 OA patients (14 females, 8 males; mean age 69.8 ± 9.6 years, BMI 30.9 ± 6.8) during knee replacement, and primary synovial fibroblasts were isolated as explained previously. The research ethics committee of CHU de Liege (Belgium) approved the study, and the patient gave informed consent to allow research procedures on samples. Human fibroblast-like synoviocytes (FLSs) were then cultured in DMEM supplemented with 10% FBS, 1% Pen/Strep, and 1% L-glutamine (all from Lonza; Basel, Switzerland) at 37 °C in an atmosphere of 5% CO2. In a plate, 5 × 10^4 FLSs were stimulated with different compounds to analyze the modulation of αVβ6: (i) TGF-β1, TNF-α, IL-1β, or IL-6 were used for 3 or 7 days at a concentration of 10 ng/mL; (ii) among the danger-associated molecular patterns, high-mobility group box 1 (HMGB1) was tested at 10, 50, and 100 ng/mL for 3 days, while S100A9 and S100A12 were tested at 100 and 200 ng/mL for 3 days or 24 h; (iii) advanced glycation end product (AGE-BSA) was tested at 50, 100, and 200 μg/mL for 3 days or 24 h; (iv) prednisolone and dexamethasone were used at 1 μM for 3 or 7 days; and (v) menadione or H2O2 was used to induce oxidative stress at 25–50–100 μM (3 h) and 100–200–400 μM (2 h), respectively, without FBS in the medium.
(§2) The expression of αV and β6 subunits and α-SMA in FLSs was evaluated by western blot analysis. Cells were scraped from plates and lysed with lysis buffer (25 mM HEPES, 150 mM NaCl, 0.5% Triton, 10% glycerol, 1 mM dithiothreitol) containing phosphatase inhibitors (25 mM β-glycerophosphate, 1 mM Na3VO4, and 1 mM NaF) and complete protease inhibitor mixture (Roche Applied Science; Penzberg, Germany). Total proteins were separated by 10% SDS–PAGE gels (12% for α-SMA) and transferred onto PVDF membranes. The membranes were then incubated with anti-αV polyclonal antibody (1:250 dilution) (Cell Signaling Technology; Boston, MA, USA), anti-β6 polyclonal antibody (1:1000 dilution) (Abcam; Cambridge, UK) or anti-α-SMA monoclonal antibody (Agilent; Santa Clara, CA, USA; 1:1000 dilution). HRP-conjugated anti-rabbit antibody (1:1000 dilution) (Cell Signaling Technology) was used as the secondary antibody. Immunoblots were developed using the ECL chemiluminescent detection system. Rabbit anti-glyceraldehyde 3-phosphate dehydrogenase (GAPDH) (Merck) or rabbit anti-heat shock protein 90 (Hsp90; Santa Cruz) was used as loading controls at a dilution of 1:10,000 or 1:200, respectively. Values of optical intensity were normalized to GAPDH or Hsp90 levels. Data were analyzed by paired Wilcoxon test; a p-value < 0.05 was considered statistically significant. Statistical analysis was performed with GraphPad Prism 6 software (San Diego, CA, USA).
Supplementary information SI3.
Variation of αV and β6 expression in human fibroblast-like synoviocytes after stimulation with different compounds. Time of stimulation and employed substances are indicated. The graphs represent αV and β6 expression before and after stimulation, obtained by western blot. Values were normalized to GAPDH and analysed by paired Wilcoxon test.
IL-1β 10 ng/mL 3 days IL-6 10 ng/mL 3 daysIL-6 Prednisolone 1µM 3 daysPrednisolone […]
Dexamethasone 1µM 3 days TNF-α 10 ng/mL 3 days TGF-β 10 ng/mL 3 days
(1 picture or pasted object on this page, not shown here)
0.0 control IL-6 0.0 control PRE […]

[2] = system: β6 integrin subunit expression, human fibroblast-like synoviocytes (FLSs); assay: β6 subunit expression in FLSs by western blot after stimulation; assay type: cell-based; settings: OA FLSs, western blot normalized to GAPDH; IL-1β, IL-6, TNF-α 10 ng/mL 3 or 7 days; prednisolone, dexamethasone 1 μM 3 or 7 days; HMGB1 10, 50, 100 ng/mL 3 days; S100A9, S100A12 100, 200 ng/mL 3 days or 24 h; AGE-BSA 50, 100, 200 μg/mL 3 days or 24 h; menadione 25–50–100 μM 3 h; H2O2 100–200–400 μM 2 h
Method: as §1, §2
IL-1β 10 ng/mL 3 days IL-6 10 ng/mL 3 daysIL-6 Prednisolone 1µM 3 daysPrednisolone
0.0 control IL-6 0.0 control PRE
Dexamethasone 1µM 3 daysDexamethasone TNF-α 10 ng/mL 3 days AGE 50 µg/mL 24 h

[3] = target: T1, integrin αVβ6 (Homo sapiens, UniProt P06756+P18564); assay: Competition study, 125ISIB-echistatin vs ligands on coated αVβ6; assay type: binding; settings: competition with 20 nM 125ISIB-echistatin, recombinant human αVβ6 coated at 1.8 µg/mL, IBB pH 7.4 / 0.5% BSA, 2 h room temperature, duplicate wells, gamma counter, five-parameter logistic
T1 construct: purchased R&D System; Minneapolis, MN, USA
Method: (§3) A competition study was performed to investigate the interaction of VTN(381–397 a.a.) with five different integrins. Radiolabeled echistatin, a disintegrin known to bind integrin receptors, was used as a tracer for the binding assays. Lyophilized echistatin was provided by Bachem (Bubendorf, Switzerland) and radiolabeled by conjugation with a radioiodinated benzoate (^125ISIB) to the epsilon amino group of lysine side chains. For the five integrins, α5β1, αVβ1, αVβ3, αVβ5, and αVβ6 (R&D System; Minneapolis, MN, USA), a solution at 1.8 µg/mL was prepared with integrin-binding buffer (IBB; 20 mM Tris pH 7.4, 150 mM NaCl, 2 mM CaCl2, 1 mM MgCl2, 1 mM MnCl2). Nunc Maxisorp Module plates were coated overnight at 4 °C with integrin complex at 1.8 µg/mL. After the wells were washed with sample buffer (IBB, 0.5% BSA), blocking solution (IBB, 2% BSA) was added, and the microplate was incubated for 2 h at room temperature. The wells were then washed three times with IBB/0.5% BSA. Then, ^125ISIB-echistatin was diluted in sample buffer to fixed concentrations of 4, 4, 8, 8, and 20 nM for α5β1, αVβ1, αVβ3, αVβ5, and αVβ6 competition studies, respectively. The ^125ISIB-echistatin was mixed with sample buffer at a ratio of 1:1 (total binding = control well) or with increasing concentrations of ligands (Supplementary information SI1) [complete VTN, VTN(381–397 a.a.), VTN(365–381 a.a.)] at a ratio 1:1 and added to wells in duplicate. We used 1,4,7-triazacyclononane-1,4,7-triacetic acid (NOTA) as a negative control. […] After rinsing, bound radioactivity was quantified using a gamma counter. The percentage of relative binding of radiolabeled echistatin was calculated as follows: radioactivity in the test well*100/radioactivity in the reference well. […] For comparison of the potency of ligands in inhibiting bound ^125ISIB-echistatin for different integrin complexes, the half-maximal inhibitory concentration (IC50) was calculated. The IC50 value was determined by constructing a dose–response curve and examining the effect of different concentrations of ligands on ^125ISIB-echistatin binding. […]
To determine if VTN(381–397 a.a.) could interact with integrins, we investigated its ability to compete with radiolabeled echistatin for binding to five different integrin complexes: α5β1, αVβ1, αVβ3, αVβ5 and αVβ6. […] First, the binding affinity of echistatin to the five integrins was measured by determining the equilibrium dissociation constant (KD). […] The fixed concentration of radiolabeled echistatin was determined according to its KD value. For each ligand concentration, the relative binding of ^125ISIB-echistatin to coated integrins was then measured, and values were plotted versus the logarithm of ligand concentration.

[4] = target: T2, integrin αVβ5 (Homo sapiens, UniProt P06756+P18084); assay: Competition study, 125ISIB-echistatin vs ligands on coated αVβ5; assay type: binding; settings: competition with 8 nM 125ISIB-echistatin, recombinant human αVβ5 coated at 1.8 µg/mL, IBB pH 7.4 / 0.5% BSA, 2 h room temperature, duplicate wells
T2 construct: purchased R&D System; Minneapolis, MN, USA
Method: as §3, with “µg/mL.” for “µg/mL. After the wells were washed with sample buffer (IBB, 0.5% BSA), blocking solution (IBB, 2% BSA) was added, and the microplate was incubated for 2 h at room temperature. The wells were then washed three times with IBB/0.5% BSA. Then, ^125ISIB-echistatin was diluted in sample buffer to fixed concentrations of 4, 4, 8, 8, and 20 nM for α5β1, αVβ1, αVβ3, αVβ5, and αVβ6 competition studies, respectively. The ^125ISIB-echistatin was mixed with sample buffer at a ratio of 1:1 (total binding = control well) or with increasing concentrations of ligands (Supplementary information SI1) [complete VTN, VTN(381–397 a.a.), VTN(365–381 a.a.)] at a ratio 1:1 and added to wells in duplicate. We used 1,4,7-triazacyclononane-1,4,7-triacetic acid (NOTA) as a negative control.”

[5] = target: T3, integrin αVβ3 (Homo sapiens, UniProt P05106+P06756); assay: Competition study, 125ISIB-echistatin vs ligands on coated αVβ3; assay type: binding; settings: competition with 8 nM 125ISIB-echistatin, recombinant human αVβ3 coated at 1.8 µg/mL, IBB pH 7.4 / 0.5% BSA, 2 h room temperature, duplicate wells
T3 construct: purchased R&D System; Minneapolis, MN, USA
Method: as §3, with “µg/mL.” for “µg/mL. After the wells were washed with sample buffer (IBB, 0.5% BSA), blocking solution (IBB, 2% BSA) was added, and the microplate was incubated for 2 h at room temperature. The wells were then washed three times with IBB/0.5% BSA. Then, ^125ISIB-echistatin was diluted in sample buffer to fixed concentrations of 4, 4, 8, 8, and 20 nM for α5β1, αVβ1, αVβ3, αVβ5, and αVβ6 competition studies, respectively. The ^125ISIB-echistatin was mixed with sample buffer at a ratio of 1:1 (total binding = control well) or with increasing concentrations of ligands (Supplementary information SI1) [complete VTN, VTN(381–397 a.a.), VTN(365–381 a.a.)] at a ratio 1:1 and added to wells in duplicate. We used 1,4,7-triazacyclononane-1,4,7-triacetic acid (NOTA) as a negative control.”

T1 sequence (P06756 31-992 limits assumed): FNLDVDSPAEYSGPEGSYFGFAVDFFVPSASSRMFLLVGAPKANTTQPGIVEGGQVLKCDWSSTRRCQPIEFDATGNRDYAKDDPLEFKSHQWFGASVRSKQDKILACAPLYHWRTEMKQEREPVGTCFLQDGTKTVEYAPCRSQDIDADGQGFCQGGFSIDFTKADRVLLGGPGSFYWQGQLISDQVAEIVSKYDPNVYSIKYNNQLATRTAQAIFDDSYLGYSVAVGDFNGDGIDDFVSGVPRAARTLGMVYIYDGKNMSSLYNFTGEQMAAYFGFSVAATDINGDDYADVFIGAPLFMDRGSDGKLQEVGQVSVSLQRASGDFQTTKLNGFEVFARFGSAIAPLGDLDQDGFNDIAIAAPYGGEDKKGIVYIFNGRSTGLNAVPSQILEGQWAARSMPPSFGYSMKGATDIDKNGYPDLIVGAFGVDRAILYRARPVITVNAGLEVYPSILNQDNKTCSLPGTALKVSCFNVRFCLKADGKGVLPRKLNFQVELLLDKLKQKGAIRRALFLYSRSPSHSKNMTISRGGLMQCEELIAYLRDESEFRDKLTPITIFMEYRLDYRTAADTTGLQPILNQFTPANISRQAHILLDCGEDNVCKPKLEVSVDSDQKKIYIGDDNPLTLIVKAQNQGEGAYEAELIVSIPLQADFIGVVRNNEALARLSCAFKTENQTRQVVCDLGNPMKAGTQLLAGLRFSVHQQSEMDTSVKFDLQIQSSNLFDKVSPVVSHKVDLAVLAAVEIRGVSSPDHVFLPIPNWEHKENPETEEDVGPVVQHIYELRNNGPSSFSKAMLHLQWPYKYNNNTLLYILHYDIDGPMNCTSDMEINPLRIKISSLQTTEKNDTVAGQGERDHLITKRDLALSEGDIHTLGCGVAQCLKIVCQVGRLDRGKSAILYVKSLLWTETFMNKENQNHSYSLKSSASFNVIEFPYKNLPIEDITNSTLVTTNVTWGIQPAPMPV
T1 sequence (P18564 22-707 limits assumed): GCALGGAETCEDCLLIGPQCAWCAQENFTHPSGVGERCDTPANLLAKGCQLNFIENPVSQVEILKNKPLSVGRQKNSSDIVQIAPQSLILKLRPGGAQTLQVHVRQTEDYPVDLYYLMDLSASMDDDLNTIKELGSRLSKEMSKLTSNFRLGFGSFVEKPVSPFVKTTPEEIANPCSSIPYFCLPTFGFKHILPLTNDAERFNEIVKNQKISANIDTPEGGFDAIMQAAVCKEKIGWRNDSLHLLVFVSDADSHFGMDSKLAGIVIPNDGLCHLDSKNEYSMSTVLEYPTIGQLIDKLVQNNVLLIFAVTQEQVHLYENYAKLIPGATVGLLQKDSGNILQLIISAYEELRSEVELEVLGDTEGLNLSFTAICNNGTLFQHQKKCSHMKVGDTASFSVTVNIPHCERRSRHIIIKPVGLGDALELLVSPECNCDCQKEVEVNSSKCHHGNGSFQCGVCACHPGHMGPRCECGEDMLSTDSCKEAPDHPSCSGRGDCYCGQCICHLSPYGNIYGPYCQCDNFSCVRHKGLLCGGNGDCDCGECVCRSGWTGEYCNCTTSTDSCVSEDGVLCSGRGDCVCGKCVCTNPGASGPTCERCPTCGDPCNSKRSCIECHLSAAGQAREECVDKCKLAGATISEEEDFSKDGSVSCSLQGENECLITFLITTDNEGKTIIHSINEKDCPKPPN
T3 sequence (P06756 31-992 limits assumed): as the sequence (P06756 31-992 limits assumed) above
T3 sequence (P05106 27-718 limits assumed): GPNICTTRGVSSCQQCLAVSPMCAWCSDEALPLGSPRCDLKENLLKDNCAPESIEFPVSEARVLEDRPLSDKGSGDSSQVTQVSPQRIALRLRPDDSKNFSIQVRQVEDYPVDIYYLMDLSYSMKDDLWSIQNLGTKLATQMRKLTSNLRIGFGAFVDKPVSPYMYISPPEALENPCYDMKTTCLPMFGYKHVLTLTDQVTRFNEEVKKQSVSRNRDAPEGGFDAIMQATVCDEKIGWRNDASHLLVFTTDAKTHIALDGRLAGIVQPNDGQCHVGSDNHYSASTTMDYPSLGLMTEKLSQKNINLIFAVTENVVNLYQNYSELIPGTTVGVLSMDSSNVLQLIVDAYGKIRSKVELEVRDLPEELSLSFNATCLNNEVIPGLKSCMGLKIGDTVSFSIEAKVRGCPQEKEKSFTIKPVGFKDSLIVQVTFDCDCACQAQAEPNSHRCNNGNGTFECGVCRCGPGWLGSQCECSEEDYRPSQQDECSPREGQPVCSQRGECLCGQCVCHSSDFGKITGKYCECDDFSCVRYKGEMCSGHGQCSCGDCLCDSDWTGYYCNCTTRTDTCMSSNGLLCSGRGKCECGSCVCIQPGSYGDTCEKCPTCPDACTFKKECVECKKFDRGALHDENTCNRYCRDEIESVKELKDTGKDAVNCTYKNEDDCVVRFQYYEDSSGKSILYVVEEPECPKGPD
T2 sequence (P06756 31-992 limits assumed): as the sequence (P06756 31-992 limits assumed) above
T2 sequence (P18084 24-719 limits assumed): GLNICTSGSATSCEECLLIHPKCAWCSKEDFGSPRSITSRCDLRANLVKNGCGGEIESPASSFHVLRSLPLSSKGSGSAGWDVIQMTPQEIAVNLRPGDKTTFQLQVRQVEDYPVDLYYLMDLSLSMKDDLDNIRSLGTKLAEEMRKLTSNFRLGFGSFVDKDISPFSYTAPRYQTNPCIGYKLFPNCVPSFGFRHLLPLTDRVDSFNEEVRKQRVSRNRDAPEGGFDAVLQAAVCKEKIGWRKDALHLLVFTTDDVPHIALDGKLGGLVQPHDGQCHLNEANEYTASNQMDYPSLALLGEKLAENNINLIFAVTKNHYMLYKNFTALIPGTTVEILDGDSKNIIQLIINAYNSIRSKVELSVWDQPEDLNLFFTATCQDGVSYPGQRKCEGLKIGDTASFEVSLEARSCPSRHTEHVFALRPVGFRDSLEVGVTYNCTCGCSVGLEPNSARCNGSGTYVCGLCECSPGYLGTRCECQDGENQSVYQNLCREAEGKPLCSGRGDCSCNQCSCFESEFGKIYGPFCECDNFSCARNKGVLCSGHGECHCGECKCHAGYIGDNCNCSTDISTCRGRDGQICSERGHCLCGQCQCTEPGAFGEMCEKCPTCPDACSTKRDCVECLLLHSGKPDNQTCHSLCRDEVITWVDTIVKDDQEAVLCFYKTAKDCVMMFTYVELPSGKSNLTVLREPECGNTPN

Row | Molecule | effect on αV subunit expression [1] | effect on β6 subunit expression [2] | IC50 [3] | IC50 [4] | IC50 [5]
1 | OO [H2O2] | none of these treatments influenced the expression levels of the αV and β6 integrin subunits | none of these treatments influenced the expression levels of the αV and β6 integrin subunits | – | – | –
2 | C[C@@H]1C[C@H]2[C@@H]3CCC4=CC(=O)C=C[C@]4(C)[C@@]3(F)[C@@H](O)C[C@]2(C)[C@@]1(O)C(=O)CO [dexamethasone] | none of these treatments influenced the expression levels of the αV and β6 integrin subunits | none of these treatments influenced the expression levels of the αV and β6 integrin subunits | – | – | –
3 | CC1=CC(=O)c2ccccc2C1=O [menadione] | none of these treatments influenced the expression levels of the αV and β6 integrin subunits | none of these treatments influenced the expression levels of the αV and β6 integrin subunits | – | – | –
4 | C[C@]12C=CC(=O)C=C1CC[C@@H]1[C@@H]2[C@@H](O)C[C@@]2(C)[C@H]1CC[C@]2(O)C(=O)CO [prednisolone] | none of these treatments influenced the expression levels of the αV and β6 integrin subunits | none of these treatments influenced the expression levels of the αV and β6 integrin subunits | – | – | –
5 | AGE-BSA: advanced glycation end product | none of these treatments influenced the expression levels of the αV and β6 integrin subunits | none of these treatments influenced the expression levels of the αV and β6 integrin subunits | – | – | –
6 | IL-1β: proinflammatory cytokine | none of these treatments influenced the expression levels of the αV and β6 integrin subunits | none of these treatments influenced the expression levels of the αV and β6 integrin subunits | – | – | –
7 | IL-6: proinflammatory cytokine | none of these treatments influenced the expression levels of the αV and β6 integrin subunits | none of these treatments influenced the expression levels of the αV and β6 integrin subunits | – | – | –
8 | SQRGHSRGRNQNSRRPS [VTN(381–397 a.a.)] | – | – | 3200 nM | – | –
9 | TNF-α | none of these treatments influenced the expression levels of the αV and β6 integrin subunits | none of these treatments influenced the expression levels of the αV and β6 integrin subunits | – | – | –
10 | VTN: whole VTN protein | – | – | 250 nM | 130 nM | 1500 nM
11 | B1 | none of these treatments influenced the expression levels of the αV and β6 integrin subunits | none of these treatments influenced the expression levels of the αV and β6 integrin subunits | – | – | –
12 | B2 | none of these treatments influenced the expression levels of the αV and β6 integrin subunits | none of these treatments influenced the expression levels of the αV and β6 integrin subunits | – | – | –
